Measurements from patent US20250120399A1, “METHODS AND COMPOSITIONS FOR ALTERING METABOLITES IN VITIS SPP. AND PREVENTING PESTS AND PATHOGENS” (Impello Biosciences, Inc., priority 2022, published 2025).

Columns and labels:
Malbec wine grape juice = assay: Key metabolites in wine grape juice by HPLC with UV detection (Example 2); format: in vivo, Vitis vinifera
Description: 200 grapes were randomly selected from the MDJ treated group and control group of the study described above in Example 1. Samples were pooled from each group and juice was prepared for winemaking used standard practices. The juice was analyzed for several key metabolites important for wine making (Table 6). All samples were run on Agilent HPLC with UV detection for the compounds listed below. Between 50 μL-100 μL was injected into the machine per sample.

Botrytis cinerea = assay: Botrytis bunch rot percent disease incidence and severity, 2022 field trial (Example 4); format: in vivo
Description: Similar to Example 3 above, additional field trials were conducted in 2022 to investigate the efficacy of MDJ in preventing bunch rot (Botrytis cinerea). The objective of this trial was to evaluate the fungicidal efficacy of MDJ at 32 oz and 48 oz/A against Botrytis cinerea on wine grapes. Serenade® Opti at 16 oz/A was included for comparative purposes. Pro 90 a NIS with anti-foaming agent was included with each treatment at 2 oz/100 gal. The trial was conducted on 21-year-old Carignane grapes (Vitis vinifera).
The first of three foliar applications was initiated June 22nd (prior to veraison) followed a month later (July 21st when fruit was at early (5 to 10%) veraison, then at 40% veraison on August 1st. Applications were made using a backpack mistblower based on a spray volume of 80 gallons per acre. As a separate control of Erysiphe necator (powdery mildew), a maintenance fungicide program of two applications in June of fenarimol (4 oz/A) followed by two applications of fenarimol+Quintec (6 oz/A) at 2 week intervals was applied.
Temperatures throughout the trial ranged from highs of 89 to 104 degrees and lows of 50 to 66 degrees F. All treatments provided good crop safety with no phytotoxicity observed. Assessments were based on visual observation of the percent disease incidence and severity at each evaluation.

[1] = test system: Black seedless grapes (Vitis labrusca); assay: Fruit Brix and titratable acid, black seedless grapes (Example 5); format: in vivo; details: for Fruit BRIX / Titratable Acid, fruit: ABCDE; for Fruit BRIX: Aug. 11, 2022; for Titratable Acid, fruit: Sep. 8, 2022
Description: (§1) Field trials were conducted in California 2022 (a dry year) to investigate the efficacy of MDJ in preventing Sour Rot caused by Aspergillus carbonarius (also known as summer bunch rot, abbreviated ASPECA in Table 7). Black seedless grapes (Vitis labrusca) were used in this trial. Four vines were used per plot. The plots were arranged in a randomized complete block design with six replicates (plots) per treatment. The plots were sprayed five times (ABCDE) at a rate of 500 gal/AC.
(§2) Treatments consisted of MDJ at 32 oz and 48 oz/A. A treatment of Regalia® at 1.5 qt/100 gal and Stargus® at 2 qt/100 gal was included for comparative purposes. Application D occurred at 5-10% veraison. Application E occurred at 40% veraison.
(§3) A randomly selected sample of approximately twenty wine grapes was used to evaluate the Brix and titratable acid. Another randomly selected sample (>500 g) was shipped to ETS Laboratories (Paso Robles, CA) for a red grape panel analysis (catechin, quercetin glycosides, tannin, polymeric anthocyanins, total anthocyanins, catechin/tannin index, and polymeric anthocyanins/tannin index). […] Total anthocyanins increased over 17% (449.1 in untreated controls compared to 529.3 in the group treated with 48 oz/A MDJ). An increase in quercetin glycosides, tannin, and polymeric anthocyanins, was also observed in MDJ treated plants (Table 8), as well as titratable acid (Table 9).

[2] = test system: Black seedless grapes (Vitis labrusca); assay: Red grape panel analysis (ETS Laboratories), black seedless grapes (Example 5); format: in vivo; details: for Fruit catechin: ABCDE, Aug. 18, 2022
Description: as §1, §2, §3

[3] = test system: Kyoho grapes (Vitis vinifera×Vitis labrusca); assay: Cluster weight, grape weight, diameter, grapes per cluster, pH and Brix in Kyoho grapes (Example 6); format: in vivo; details: for Average Brix (FRUIT, BRIX) / Average diameter (FRUIT, DIAMET) / Average fruit per cluster (CLUSTR, COUNT) / Individual grape weight (FRUIT, WEIGHT) / pH (FRUIT, PH) / Average Weight of cluster: applications ABCD; for Average Brix (FRUIT, BRIX) / Average diameter (FRUIT, DIAMET) / Average fruit per cluster (CLUSTR, COUNT) / Individual grape weight (FRUIT, WEIGHT): rated Aug. 17, 2022; for pH (FRUIT, PH): rated Aug. 17, 2022, scale 0-14
Description: as §1, with “10). Kyoho” for “7). Black seedless”, “(Vitis vinifera×Vitis” for “(Vitis”, “Three” for “Four”, “treatment (24 plots total).” for “treatment.”, “four” for “five”, “(ABCD)” for “(ABCDE)”
Treatments consisted of MDJ at 32 oz and 48 oz/A. A treatment of Regalia® at 1.5 qt/100 gal and Stargus® at 2 qt/100 gal was included for comparative purposes.

[4] = Malbec MDJ treated (2.5 mM, Example 1 trial), pooled 200 grapes
[5] = fruit, Aug. 18, 2022, 32 oz/a, applications ABCDE
[6] = fruit, Aug. 18, 2022, 48 oz/a, applications ABCDE

CCCCCC1C(=O)CCC1CC(=O)OC (stereo not drawn) [MDJ, methyl dihydrojasmonate] was tested. Which “Catechin in wine grape juice” value (Malbec wine grape juice; [4]) did it give?
The value was 28 mg/L.

And the “Polymeric anthocyanins in wine grape juice” value (Malbec wine grape juice; [4])?
Its value is 24 mg/L.

And the “Quercetin glycosides in wine grape juice” value (Malbec wine grape juice; [4])?
Its value is 23 mg/L.

What about the “Tannin in wine grape juice” value (Malbec wine grape juice; [4]) of the same compound?
Its value is 393 mg/L.

What about the “Total anthocyanins in wine grape juice” value (Malbec wine grape juice; [4]) of the same compound?
Its value is 1697 mg/L.

And the “Increase of total anthocyanins vs control” value (Malbec wine grape juice; Malbec wine grape juice, MDJ treatment group)?
Its value is “approximately 8%”.

And the “Color of grape wine juice vs control group” value (Malbec wine grape juice; Malbec, MDJ treatment group, FIG. 2)?
The value was “richer, darker red color”.

And the “Control of Botrytis incidence and severity, higher vs lower rate” value (Botrytis cinerea; Carignane wine grapes, higher rate of MDJ (48 oz/A))?
Its value is “numerically better control of Botrytis incidence and severity”.

And the “B. cinerea suppression (disease incidence) vs untreated grapes” value (Botrytis cinerea; MDJ Elicitor at both rates (32 and 48 oz/A), 26DAC, 20 bunches per plot)?
Its value is “significantly better B. cinerea suppression”.

And the “Control of Botrytis, higher vs lower rate” value (Botrytis cinerea; higher rate of MDJ (48 oz/A), 7 and 14 days after the third treatment (7 and 14DAC))?
Its value is “significantly better control”.

And the “Control of Botrytis incidence compared to the Serenade Opti standard” value (Botrytis cinerea; low rate of MDJ (32 oz/A), 26DAC)?
The value was “significantly better control of Botrytis incidence”.

What about the “Fruit BRIX” value ([1]; 32 oz/a) of the same compound?
The value was 19.080— %.

And the “Titratable Acid, fruit” value ([1]; 32 oz/a)?
The value was 5.83— g/L.

And the “Fruit BRIX” value ([1]; 48 oz/a)?
Its value is 19.560— %.

What about the “Titratable Acid, fruit” value ([1]; 48 oz/a) of the same compound?
The value was 6.67— g/L.

And the “Fruit Brix vs untreated” value ([1]; MDJ treated plants)?
The value was “increase”.

What about the “Titratable acid vs untreated” value ([1]; MDJ treated plants) of the same compound?
Its value is “increase”.

What about the Fruit catechin ([2]; 32 oz/a) of the same compound?
Its Fruit catechin is 0.8b mg/L.

What about the “Increase of total anthocyanins vs untreated controls” value ([2]; 48 oz/A MDJ) of the same compound?
Its value is “over 17%”.

And the total anthocyanins ([2]; 48 oz/A MDJ)?
Its total anthocyanins is 529.3.

What about the Fruit catechin ([2]; 48 oz/a) of the same compound?
The Fruit catechin was 2.6a mg/L.

And the Catechin vs untreated ([2]; MDJ treated plants)?
The Catechin vs untreated was “increase”.

What about the “Polymeric anthocyanins vs untreated” value ([2]; MDJ treated plants) of the same compound?
The value was “increase”.

And the “Quercetin glycosides vs untreated” value ([2]; MDJ treated plants)?
The value was “increase”.

And the Tannin vs untreated ([2]; MDJ treated plants)?
Its Tannin vs untreated is “increase”.

What about the catechin/tannin index [2, 5] of the same compound?
Its catechin/tannin index is 0.0—.

And the polymeric anthocyanins [2, 5]?
The polymeric anthocyanins was 13.5— mg/L.

And the polymeric anthocyanins/tannin index [2, 5]?
The polymeric anthocyanins/tannin index was 0.0312—.

And the quercetin glycosides [2, 5]?
The quercetin glycosides was 89.8— mg/L.

What about the tannin [2, 5] of the same compound?
The tannin was 432.0— mg/L.

And the total anthocyanins [2, 5]?
The total anthocyanins was 388.3— mg/L.

What about the catechin/tannin index [2, 6] of the same compound?
The catechin/tannin index was 0.0—.

What about the polymeric anthocyanins [2, 6] of the same compound?
Its polymeric anthocyanins is 14.7— mg/L.

And the polymeric anthocyanins/tannin index [2, 6]?
The polymeric anthocyanins/tannin index was 0.0304—.

What about the quercetin glycosides [2, 6] of the same compound?
Its quercetin glycosides is 113.2— mg/L.

What about the tannin [2, 6] of the same compound?
Its tannin is 483.2— mg/L.

What about the total anthocyanins [2, 6] of the same compound?
The total anthocyanins was 529.3— mg/L.

What about the “Average Brix (FRUIT, BRIX)” value ([3]; 32 oz/a) of the same compound?
Its value is 20.73%.

And the “Average diameter (FRUIT, DIAMET)” value ([3]; 32 oz/a)?
Its value is 23.778 mm.

What about the “Average fruit per cluster (CLUSTR, COUNT)” value ([3]; 32 oz/a) of the same compound?
Its value is 32.5 number.

And the “Individual grape weight (FRUIT, WEIGHT)” value ([3]; 32 oz/a)?
The value was 7.277 g.

What about the “pH (FRUIT, PH)” value ([3]; 32 oz/a) of the same compound?
The value was 4.0.

What about the “Average Brix (FRUIT, BRIX)” value ([3]; 48 oz/a) of the same compound?
The value was 20.17%.

What about the “Average diameter (FRUIT, DIAMET)” value ([3]; 48 oz/a) of the same compound?
The value was 23.917 mm.

And the “Average fruit per cluster (CLUSTR, COUNT)” value ([3]; 48 oz/a)?
Its value is 34.3 number.

What about the “Individual grape weight (FRUIT, WEIGHT)” value ([3]; 48 oz/a) of the same compound?
The value was 7.232 g.

And the “pH (FRUIT, PH)” value ([3]; 48 oz/a)?
Its value is 4.0.

What about the “Average Weight of cluster” value ([3]; Aug. 17, 2022, 32 oz/a) of the same compound?
The value was 234.287a g.

And the “Average Weight of cluster” value ([3]; Aug. 17, 2022, 48 oz/a)?
Its value is 246.350a g.

And the “Diameter of individual grapes” value ([3]; MDJ treatment)?
Its value is “did not significantly affect”.

And the “Weight of individual grapes” value ([3]; MDJ treatment)?
Its value is “did not significantly affect”.

What about the “pH of individual grapes” value ([3]; MDJ treatment) of the same compound?
Its value is “did not significantly affect”.

And the “Grapes per cluster vs standard control (Regalia and Stargus)” value ([3]; both rates of MDJ (32 and 48 oz/A))?
Its value is “significantly more grapes per cluster”.

And the “Brix level compared to other treatments” value ([3]; higher rate of MDJ (48 oz/A))?
The value was “statistically reduced the Brix level”.
